Laboratory results: patent US20240174659A1, “COMPOUNDS AND METHODS FOR YAP/TEAD MODULATION AND INDICATIONS THEREFOR” (Opna Bio SA, priority 2021, published 2024)

These compounds were tested on TEAD-dependent transcription (assay: Inhibitor activity against TEAD-dependent transcription in a cell-based reporter assay (MSTO-211H+12XGTIIC luciferase)). Conditions: Homo sapiens; MSTO-211H+12XGTIIC cells, 24 hours incubation, luciferase luminescence normalized to cell viability fluorescence, geometric mean; read-out: MSTO-211H GMean IC50 (uM) Cell Assay Reporter Cell Variant: TEAD.
How it was run: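 MSTO-211H mesothelioma cells stably carrying a 12xGTIIC TEAD-response-element luciferase reporter, treated with serial compound dilutions for 24 h at 37 °C. Luminescence normalized to CellTiter-Fluor viability signal; % inhibition versus DMSO and 20 μM K-975 controls, IC50 by nonlinear regression.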

Row | Structure (SMILES) | IC50
1 | O=C(/C=C/CN1CCC1)N1CCc2ccc(Oc3ccc(C(F)(F)F)cc3)cc2C1 [P-0117, (E)-4-(azetidin-1-yl)-1-(7-(4-(trifluoromethyl)phenoxy)-3,4-dihydroisoquinolin-2(1H)-yl)but-2-en-1-one] | 0.5 to 20 µM
2 | O=C(/C=C/CN1CCCC1)N1CCc2ccc(Oc3ccc(C(F)(F)F)cc3)cc2C1 [P-0118, (E)-4-(pyrrolidin-1-yl)-1-(7-(4-(trifluoromethyl)phenoxy)-3,4-dihydroisoquinolin-2(1H)-yl)but-2-en-1-one] | 0.5 to 20 µM
3 | O=C(/C=C/Cn1ccnc1)N1CCc2ccc(Oc3ccc(C(F)(F)F)cc3)cc2C1 [P-0119, (E)-4-(1H-imidazol-1-yl)-1-(7-(4-(trifluoromethyl)phenoxy)-3,4-dihydroisoquinolin-2(1H)-yl)but-2-en-1-one] | 0.001 to 0.5 µM
4 | O=C(/C=C/CN1CCOCC1)N1CCc2ccc(Oc3ccc(C(F)(F)F)cc3)cc2C1 [P-0120, (E)-4-morpholino-1-(7-(4-(trifluoromethyl)phenoxy)-3,4-dihydroisoquinolin-2(1H)-yl)but-2-en-1-one] | 0.5 to 20 µM
5 | CN1CCN(C/C=C/C(=O)N2CCc3ccc(Oc4ccc(C(F)(F)F)cc4)cc3C2)CC1 [P-0121, (E)-4-(4-methylpiperazin-1-yl)-1-(7-(4-(trifluoromethyl)phenoxy)-3,4-dihydroisoquinolin-2(1H)-yl)but-2-en-1-one] | 0.5 to 20 µM
6 | C=C(C)C(=O)N1CCc2ccc(Oc3ccc(C(F)(F)F)cc3)cc2C1 [P-0122, 2-methyl-1-(7-(4-(trifluoromethyl)phenoxy)-3,4-dihydroisoquinolin-2(1H)-yl)prop-2-en-1-one] | 0.5 to 20 µM
7 | C/C=C/C(=O)N1CCc2ccc(Oc3ccc(C(F)(F)F)cc3)cc2C1 [P-0123, (E)-1-(7-(4-(trifluoromethyl)phenoxy)-3,4-dihydroisoquinolin-2(1H)-yl)but-2-en-1-one] | 0.001 to 0.5 µM
8 | C=C(Cl)C(=O)N1CCc2ccc(Oc3ccc(C(F)(F)F)cc3)cc2C1 [P-0124, 2-chloro-1-(7-(4-(trifluoromethyl)phenoxy)-3,4-dihydroisoquinolin-2(1H)-yl)prop-2-en-1-one] | 0.001 to 0.5 µM
9 | O=C(/C=C/Cl)N1CCc2ccc(Oc3ccc(C(F)(F)F)cc3)cc2C1 [P-0125, (E)-3-chloro-1-(7-(4-(trifluoromethyl)phenoxy)-3,4-dihydroisoquinolin-2(1H)-yl)prop-2-en-1-one] | 0.001 to 0.5 µM
10 | C=C(CO)C(=O)N1CCc2ccc(Oc3ccc(C(F)(F)F)cc3)cc2C1 [P-0126, 2-(hydroxymethyl)-1-(7-(4-(trifluoromethyl)phenoxy)-3,4-dihydroisoquinolin-2(1H)-yl)prop-2-en-1-one] | 0.001 to 0.5 µM
11 | C=C(C)S(=O)(=O)N1CCc2ccc(Oc3ccc(C(F)(F)F)cc3)cc2C1 [P-0127, 2-(prop-1-en-2-ylsulfonyl)-7-(4-(trifluoromethyl)phenoxy)-1,2,3,4-tetrahydroisoquinoline] | 0.001 to 0.5 µM
12 | C=CC(=O)N1CCc2ccc(Oc3ccc(C(F)(F)F)cc3)cc2C1=O [P-0128, 2-acryloyl-7-(4-(trifluoromethyl)phenoxy)-3,4-dihydroisoquinolin-1(2H)-one] | 0.001 to 0.5 µM
13 | C=CC(=O)N1CCc2ccc(OCc3ccc(F)c(F)c3)cc2C1 [P-0129, 1-(7-((3,4-difluorobenzyl)oxy)-3,4-dihydroisoquinolin-2(1H)-yl)prop-2-en-1-one] | > 20 µM
14 | C=CC(=O)N1CCc2ccc(OCC3CCC(F)(F)C3)cc2C1 (centres unmarked) [P-0130, 1-(7-((3,3-difluorocyclopentyl)methoxy)-3,4-dihydroisoquinolin-2(1H)-yl)prop-2-en-1-one] | 0.001 to 0.5 µM
